Read-outs that look alike come from different tables or passages of the source.
Legend:
[1] = target: GSK3α (GST-full length GSK3α) (Homo sapiens (Human), UniProt P49840); assay: GSK3α TR-FRET kinase assay; type: biochemical
Outline: (§1)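 Compound preincubated 30 min, then 1 nM GST-full-length GSK3α or GSK3b run 100 min at ambient temperature with 200 nM biotinylated, S645-prephosphorylated glycogen synthase 631-650 peptide in Tris pH 7.5, MgCl2, DTT, BSA, 1% DMSO. ATP 4 μM (α) or 2 μM (β), or 1 mM. EDTA-quenched; Tb-anti-pSer641/streptavidin-d2 TR-FRET 665/615 ratio gave IC50.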

[2] = target: GSK3b (GST-full length GSK3b) (Homo sapiens (Human), UniProt P49841); assay: GSK3b TR-FRET kinase assay; type: biochemical
Outline: as §1

[3] = 1 nM GSK3α, 4 μM ATP, 30 minute preincubation, Table 16, read-out: GSK3-A TR-FRET BIOCHEMICAL (TR-FRET)
[4] = 1 nM GSK3b, 2 μM ATP, 30 minute preincubation, Table 16, read-out: GSK3-B TR-FRET BIOCHEMICAL (TR-FRET)
[5] = GSK3-A (TR-FRET 1 mM ATP), GMean, IC50, 1 mM ATP, geometric mean
[6] = GSK3-B (TR-FRET 1 mM ATP), GMean, IC50, 1 mM ATP, geometric mean
[7] = 1 nM GSK3α, 4 μM ATP, 30 minute preincubation, read-out: GSK3-A TR-FRET BIOCHEMICAL (TR-FRET), IC50
[8] = 1 nM GSK3b, 2 μM ATP, 30 minute preincubation, read-out: GSK3-B TR-FRET BIOCHEMICAL (TR-FRET), IC50

GSK3b (GST-full length GSK3b), sequence (P49841 whole entry): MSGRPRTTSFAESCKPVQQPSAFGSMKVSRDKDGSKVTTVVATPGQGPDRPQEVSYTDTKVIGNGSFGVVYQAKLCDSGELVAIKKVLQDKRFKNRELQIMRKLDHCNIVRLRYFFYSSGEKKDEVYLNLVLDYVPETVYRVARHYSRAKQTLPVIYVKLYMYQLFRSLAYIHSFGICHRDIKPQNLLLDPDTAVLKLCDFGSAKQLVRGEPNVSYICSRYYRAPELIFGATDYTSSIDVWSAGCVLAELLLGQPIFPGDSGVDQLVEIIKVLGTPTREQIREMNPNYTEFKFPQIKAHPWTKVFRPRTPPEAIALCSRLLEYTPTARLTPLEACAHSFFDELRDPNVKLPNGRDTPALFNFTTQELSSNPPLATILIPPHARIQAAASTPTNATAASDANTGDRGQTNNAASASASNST
GSK3α (GST-full length GSK3α), sequence (P49840 whole entry): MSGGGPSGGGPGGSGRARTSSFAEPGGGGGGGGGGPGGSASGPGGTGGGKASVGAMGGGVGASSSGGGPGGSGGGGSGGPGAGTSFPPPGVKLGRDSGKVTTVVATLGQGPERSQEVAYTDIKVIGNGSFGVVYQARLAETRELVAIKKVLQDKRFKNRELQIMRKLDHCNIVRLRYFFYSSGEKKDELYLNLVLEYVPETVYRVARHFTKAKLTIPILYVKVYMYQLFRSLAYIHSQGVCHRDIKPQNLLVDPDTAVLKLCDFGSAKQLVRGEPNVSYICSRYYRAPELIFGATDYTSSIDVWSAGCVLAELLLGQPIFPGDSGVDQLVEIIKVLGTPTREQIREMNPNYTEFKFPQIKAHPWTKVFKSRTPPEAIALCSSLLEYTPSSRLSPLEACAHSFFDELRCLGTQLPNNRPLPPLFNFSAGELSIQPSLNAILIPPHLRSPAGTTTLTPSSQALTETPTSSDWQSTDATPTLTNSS

With `COCc1ccc(S(=O)(=O)N2CCC3(CC2)C2=C(CC(C)(C)CC2=O)Nc2n[nH]cc23)cc1` [Compound 947250] the IC50 [1, 3] was ≤ 100 nM and the IC50 [2, 4] was ≤ 100 nM.

An IC50 [1, 3] of 100 to 1000 nM and an IC50 [2, 4] of 100 to 1000 nM were found for `CC1(C)CC(=O)C2=C(C1)Nc1n[nH]cc1C21CCN(S(=O)(=O)c2ccc(F)cn2)CC1` [Compound 947251] in this work.

In the case of `CCc1ncc(S(=O)(=O)N2CCC3(CC2)C2=C(CC(C)(C)CC2=O)Nc2n[nH]cc23)s1` [Compound 947252], the IC50 [1, 3] is reported as ≤ 100 nM and the IC50 [2, 4] is reported as ≤ 100 nM.

With `CCOc1cccc(S(=O)(=O)N2CCC3(CC2)C2=C(CC(C)(C)CC2=O)Nc2n[nH]cc23)c1` [Compound 947253] the IC50 [1, 3] was ≤ 100 nM, the IC50 [1, 5] was 100 to 1000 nM and the IC50 [2, 4] was ≤ 100 nM. For the same compound, the IC50 [2, 6] was 1000 to 5000 nM.

For `CC1(C)CC(=O)C2=C(C1)Nc1n[nH]cc1C21CCN(S(=O)(=O)c2cccc(C#N)c2)CC1` [Compound 947254], the IC50 [1, 3] was ≤ 100 nM, the IC50 [1, 5] was ≤ 100 nM and the IC50 [2, 4] was ≤ 100 nM. It also gave an IC50 [2, 6] of 100 to 1000 nM.

In the case of `COc1ccc(S(=O)(=O)N2CCC3(CC2)C2=C(CC(C)(C)CC2=O)Nc2n[nH]cc23)c(F)c1` [Compound 947255], the IC50 [1, 7] is reported as ≤ 100 nM, the IC50 [1, 5] is reported as ≤ 100 nM and the IC50 [2, 8] is reported as ≤ 100 nM. For the same compound, the IC50 [2, 6] was 100 to 1000 nM.

In the case of `CC1(C)CC(=O)C2=C(C1)Nc1n[nH]cc1C21CCN(S(=O)(=O)c2ccc(C(F)(F)F)cc2)CC1` [Compound 947256], the IC50 [1, 3] is reported as ≤ 100 nM and the IC50 [2, 4] is reported as ≤ 100 nM.

An IC50 [1, 3] of 100 to 1000 nM and an IC50 [2, 4] of 1000 to 5000 nM were found for `Cc1nn(C)c(C)c1S(=O)(=O)N1CCC2(CC1)C1=C(CC(C)(C)CC1=O)Nc1n[nH]cc12` [Compound 947257] in this work.

`CC(C)n1ccc(S(=O)(=O)N2CCC3(CC2)C2=C(CC(C)(C)CC2=O)Nc2n[nH]cc23)n1` [Compound 947258] was tested, and the IC50 [1, 3] was ≤ 100 nM and the IC50 [2, 4] was ≤ 100 nM.

In the case of `Cc1nc(C)c(S(=O)(=O)N2CCC3(CC2)C2=C(CC(C)(C)CC2=O)Nc2n[nH]cc23)s1` [Compound 947259], the IC50 [1, 3] is reported as ≤ 100 nM and the IC50 [2, 4] is reported as ≤ 100 nM.

`COc1ncccc1S(=O)(=O)N1CCC2(CC1)C1=C(CC(C)(C)CC1=O)Nc1n[nH]cc12` [Compound 947260] was tested, and the IC50 [1, 7] was ≤ 100 nM, the IC50 [1, 5] was ≤ 100 nM and the IC50 [2, 8] was ≤ 100 nM. The IC50 [2, 6] was 100 to 1000 nM.

In the case of `Cc1cccc(S(=O)(=O)N2CCC3(CC2)C2=C(CC(C)(C)CC2=O)Nc2n[nH]cc23)c1` [Compound 947261], the IC50 [1, 3] is reported as ≤ 100 nM and the IC50 [2, 4] is reported as ≤ 100 nM.

An IC50 [1, 3] of 100 to 1000 nM and an IC50 [2, 4] of 100 to 1000 nM were found for `CC1(C)CC(=O)C2=C(C1)Nc1n[nH]cc1C21CCN(S(=O)(=O)c2cc(F)ccn2)CC1` [Compound 947262] in this work.

`COc1cc(S(=O)(=O)N2CCC3(CC2)C2=C(CC(C)(C)CC2=O)Nc2n[nH]cc23)ccc1F` [Compound 947263] was tested, and the IC50 [1, 3] was ≤ 100 nM, the IC50 [1, 5] was 100 to 1000 nM and the IC50 [2, 4] was ≤ 100 nM. It also gave an IC50 [2, 6] of 1000 to 5000 nM.

In the case of `CC1(C)CC(=O)C2=C(C1)Nc1n[nH]cc1C21CCN(S(=O)(=O)c2cccc(C(F)F)c2)CC1` [Compound 947264], the IC50 [1, 7] is reported as ≤ 100 nM, the IC50 [1, 5] is reported as ≤ 100 nM and the IC50 [2, 8] is reported as ≤ 100 nM. The IC50 [2, 6] was 100 to 1000 nM.

In the case of `CC1(C)CC(=O)C2=C(C1)Nc1n[nH]cc1C21COC2(CN(C(=O)C3CCC(F)(F)C3)C2)C1` (centres unmarked) [Compound 947265], the IC50 [1, 7] is reported as ≤ 100 nM and the IC50 [2, 8] is reported as 100 to 1000 nM.

With `CC1CC(C(=O)N2CC3(C2)CC2(CO3)C3=C(CC(C)(C)CC3=O)Nc3n[nH]cc32)C1` (centres unmarked) [Compound 947266] the IC50 [1, 7] was ≤ 100 nM and the IC50 [2, 8] was ≤ 100 nM.

With `CC1(C)CC(=O)C2=C(C1)Nc1n[nH]cc1C21COC2(CN(C(=O)C3CCC(F)CC3)C2)C1` (centres unmarked) [Compound 947267] the IC50 [1, 7] was ≤ 100 nM and the IC50 [2, 8] was 100 to 1000 nM.

With `CC1CCC(C(=O)N2CC3(C2)CC2(CO3)C3=C(CC(C)(C)CC3=O)Nc3n[nH]cc32)C1` (centres unmarked) [Compound 947268] the IC50 [1, 7] was ≤ 100 nM and the IC50 [2, 8] was ≤ 100 nM.

In the case of `CC1CCC(CC(=O)N2CC3(C2)CC2(CO3)C3=C(CC(C)(C)CC3=O)Nc3n[nH]cc32)C1` (centres unmarked) [Compound 947269], the IC50 [1, 7] is reported as ≤ 100 nM, the IC50 ([1]; read-out: GSK3-A (TR-FRET 1 mM ATP), GMean, IC50, 1 mM ATP, geometric mean) is reported as 100 to 1000 nM and the IC50 [2, 8] is reported as ≤ 100 nM. The IC50 ([2]; read-out: GSK3-B (TR-FRET 1 mM ATP), GMean, IC50, 1 mM ATP, geometric mean) was 100 to 1000 nM.

In the case of `CCC(C)C(=O)N1CC2(C1)CC1(CO2)C2=C(CC(C)(C)CC2=O)Nc2n[nH]cc21` (centres unmarked) [Compound 947270], the IC50 [1, 7] is reported as ≤ 100 nM and the IC50 [2, 8] is reported as 100 to 1000 nM.

`CC1(C)CC(=O)C2=C(C1)Nc1n[nH]cc1C21COC2(CN(C(=O)C3(C)CC(F)C3)C2)C1` (centres unmarked) [Compound 947271] was tested, and the IC50 [1, 7] was ≤ 100 nM and the IC50 [2, 8] was 100 to 1000 nM.

`CC1(C)CC(=O)C2=C(C1)Nc1n[nH]cc1C21COC2(CN(C(=O)C3CC3(F)F)C2)C1` (centres unmarked) [Compound 947272] was tested, and the IC50 [1, 7] was ≤ 100 nM and the IC50 [2, 8] was ≤ 100 nM.

With `CC(C)C1CC(C(=O)N2CC3(C2)CC2(CO3)C3=C(CC(C)(C)CC3=O)Nc3n[nH]cc32)C1` (centres unmarked) [Compound 947273] the IC50 [1, 7] was ≤ 100 nM and the IC50 [2, 8] was ≤ 100 nM.

Source: US20250313563A1, “GLYCOGEN SYNTHASE KINASE 3 INHIBITORS AND USES THEREOF” (The Broad Institute, Inc., priority 2022, published 2025)
